The record followed here is patent US12653896B2, “Targeted dendrimer conjugates” (Starpharma Pty Ltd, priority 2019, dated 2026).

Common to all, as to format: cell-based, human
In experiment [1] the test system is MDA-MB-231 cells. Briefly: In vitro association study (flow cytometry, Cy5), MDA-MB-231. Conditions: for cellular association value (DFO/Cy5 BHA dendrimers; quantity not named, table stands under 'Percent of cellular association'): MDA-MB-231, 0.5 h. On the procedure:
(§1) MDA-MB-231, MDA-MB-231/HER2 (HER2 knock in) (as described above), or SKOV-3 cells were seeded in a 24-well plate (1×10^5 cells per well) in 500 μL of appropriate growth media with the addition of 10% (v/v) fetal bovine serum (FBS) and incubated with compound 36 or 41 at 3.33 nM, […] atmosphere. After incubation, non-binding/non-associating particles were removed from adherent cells by gently washing with DPBS three times (300 μL/well). Cells were removed from plates by treatment with TrypLE™ Express Enzyme (1×), no phenol red (150 μL/well) for 5-10 min at room temperature. The plates were then placed on ice. Cellular binding and association of sample were then determined through flow cytometry by the acquisition of the signal from Cy5.
(A flow cytometer gives signals particle by particle.)

In experiment [2] the test system is MDA-MB-231/HER2 cells. Briefly: In vitro association study (flow cytometry, Cy5), MDA-MB-231/HER2. Particulars: for cellular association value (DFO/Cy5 BHA dendrimers; quantity not named, table stands under 'Percent of cellular association'): MDA-MB-231/HER2, 0.5 h. The method, then: as §1
For experiment [3], the system named is MDA-MB-453 cells. The experiment is described as follows: Cell association by flow cytometry (Cy5), MDA-MB-453. Particulars: for Mean Fluorescence Intensity (Cy5), MFI: MDA-MB-453, 1 hour on ice, triplicate wells; for binding to HER2-positive MDA-MB-453 cells: result in words. On the procedure:
The HER2-expressing human metastatic carcinoma cell line MDA-MB-453 (ATCC HTB-131) and the HER2-negative epithelial adenocarcinoma cell line MDA-MB-231 (ATCC HTB-26) were maintained in Dulbecco's Modified Eagle's Medium (DMEM) containing 10% FBS and penicillin-streptomycin (100 U/mL) at 37° C. under a 5% CO2 humidified atmosphere and subcultured prior to confluence using trypsin. Human adenocarcinoma ovary cell line SKOV-3 (ATCC® HTB-77) cells were maintained in RPMI media with the addition of 10% (v/v) FBS and penicillin-streptomycin (100 U/mL) at 37° C. in a 5% CO2 humidified atmosphere and subcultured prior to confluence.
For measurement of cell association by flow cytometry, cells in suspension were added at 1×10^5 cells per well to a 96 well assay plate. Following incubation with nanobody-dendrimer or unconjugated dendrimer for 1 hour on ice, cells were washed three times with 200 ul of DMEM containing 10% FBS to remove unbound dendrimer. Cells were then resuspended in chilled Fluorobrite media supplemented with 10% FBS and Cy5 fluorescence measured using 642 nm excitation and emission collected between 661-691 nm. To measure internalisation kinetics, nanobody-dendrimer was incubated with cells for 24, 4, 1, 0.5 and 0.1 hours at 37° C. before unbound nanobody-dendrimer was removed by washing and analysed by flow cytometry.

On to “BHALys[Lys]2[Lys]4[Lys]8[Lys]16[Lys]32[((α-NH-COPEG24NH-COPEG4(PhTzMe)/TCO-PEG3NH-COPEG24NH-Glu-DBCO)1(α-Lys(α-NHCy5)(ε-NHDFO))1(α-NH2)30)(ε-NH-COPEG1000)32] [Compound 85]”, for which the “cellular association value (DFO/Cy5 BHA dendrimers; quantity not named, table stands under 'Percent of cellular association')” value in experiment [1] is listed as 33.23 ± 2.2; in experiment [2], 25.6 ± 0.43.
Turning to “(MeTzPh)PEG4CO-NHPEG24CO—[N(PN)2][Lys]32[((α-NHCy5)1(α-NHAc)31)(ε-NH-COPEG1100)32] [Compound 39]”, the Mean fluorescence intensity is 252.0 ± 6.0 in experiment [1] (MDA-MB-231, 1 h); 249.0 ± 8.7 in experiment [1] (MDA-MB-231, 2 h); 247.3 ± 7.2 in experiment [1] (MDA-MB-231, 4 h); 196.3 ± 3.1 in experiment [1] (MDA-MB-231, 24 h); 257.5 ± 12.0 in experiment [2] (MDA-MB-231/HER2, 1 h); 249.0 ± 15.6 in experiment [2] (MDA-MB-231/HER2, 2 h). Moreover, the Mean fluorescence intensity in experiment [2] (MDA-MB-231/HER2, 4 h) is given as 207.0 ± 2.8; in experiment [2] (MDA-MB-231/HER2, 24 h), 207.5 ± 40.3. The “Percent of cellular association” value turned out to be 0.97 ± 0.12% in experiment [1] (MDA-MB-231, 1 h) and 0.47 ± 0.21% in experiment [2] (MDA-MB-231/HER2, 4 h). Further, the “Mean Fluorescence Intensity (Cy5), MFI” value in experiment [3] is listed as 4.349 ± 0.08. Further, in experiment [3], the “binding to HER2-positive MDA-MB-453 cells” value is reported as “did not bind”.
Turning to “BHALys[Lys]2[Lys]4[((α-NH-COPEG24NH-COPEG4(PhTzMe/TCO-PEG3NH-COPEG24NH-Glu-DBCO))1(α-Lys(α-NHCy5)(ε-NHDFO))1(α-NH2)2)(ε-NH-COPEG1000)4] [Compound 82]”, the figures for the “cellular association value (DFO/Cy5 BHA dendrimers; quantity not named, table stands under 'Percent of cellular association')” value in experiment [1] and in experiment [2] were 23.3 ± 3.98 and 14.83 ± 1.60, respectively.
For the substance “BHALys[Lys]2[Lys]4[Lys]8[((α-NH-COPEG24NH-COPEG4(PhTzMe)/TCO-PEG3NH-COPEG24NH-Glu-DBCO)1(α-Lys(α-NHCy5)(ε-NHDFO))1(α-NH2)6)(ε-NH-COPEG1000)8] [Compound 83]”, the “cellular association value (DFO/Cy5 BHA dendrimers; quantity not named, table stands under 'Percent of cellular association')” value in experiment [1] worked out at 42.8 ± 2.78; in experiment [2], 43.23 ± 3.48.
For “(MeTzPh)PEG4CO-NHPEG24CO—[N(PN)2][Lys]8[((α-NHCy5)1(α-NHAc)7)(ε-NH-COPEG1100)8] [Compound 37]”, the Mean fluorescence intensity in experiment [1] (MDA-MB-231, 1 h) is listed as 258.3 ± 19.6; in experiment [1] (MDA-MB-231, 2 h), 256.7 ± 24.8; in experiment [1] (MDA-MB-231, 4 h), 221.3 ± 3.5; in experiment [1] (MDA-MB-231, 24 h), 215.3 ± 4.9; in experiment [2] (MDA-MB-231/HER2, 1 h), 293.0 ± 8.5; in experiment [2] (MDA-MB-231/HER2, 2 h), 268.0 ± 11.3. Also, the Mean fluorescence intensity in experiment [2] (MDA-MB-231/HER2, 4 h) is reported as 241.5 ± 17.7; in experiment [2] (MDA-MB-231/HER2, 24 h), 206.0 ± 2.8. The “Percent of cellular association” value was determined as 1.10 ± 0.35% in experiment [1] (MDA-MB-231, 1 h); 1.23 ± 0.47% in experiment [1] (MDA-MB-231, 2 h); 2.47 ± 0.81% in experiment [2] (MDA-MB-231/HER2, 1 h). Besides, the “Mean Fluorescence Intensity (Cy5), MFI” value in experiment [3] was 3.097 ± 0.01. Further, the “binding to HER2-positive MDA-MB-453 cells” value in experiment [3] is reported as “did not bind”.
